Data published in US11718596B2, “Amyloid targeting agents and methods of using the same” (The Regents of the University of California, priority 2014, dated 2023).
Values after ≈ are worked out from the molar mass of the structure shown.

What was measured:
[1] = system: amyloid deposits in murine AD neuronal tissue; assay: Tissue staining of amyloid deposits in AD mouse brain sections; settings: for staining of amyloid deposits in murine AD neuronal tissue: figure legends; for fluorescence labeling of amyloid deposits in hippocampal brain sections: mouse model for Alzheimer's disease, FIG. 13
Solubility studies = settings: lower pH and higher buffer concentration
[2] = biological target: aggregated Aβ(1-42) peptide (Homo sapiens, UniProt P05067); settings: in vitro; characteristic fluorescence upon binding to Alzheimer's related amyloids
[3] = system: amyloids derived from amyloid-β, PrP, and α-synuclein; assay type: binding
[4] = Hydrolytic decomposition in PBS by HPLC; assay type: physicochemical; settings: PBS with 5% DMSO, 25° C., read-out: t1/2 for hydrolysis (converted)
Source text: In certain in vivo environments (especially at high or low pH or in the presence of esterases), ANCA-11 is expected to decompose very rapidly due to the poor stability of its ester functionality. The amide functionality in Compound 1 alleviates the problem of hydrolytic instability inherent to ANCA-11.

[5] = system: prion amyloid deposits in the retina
[6] = biological target: amyloid deposits in the retina (Homo sapiens, UniProt P05067); assay: Ex vivo retina analysis of J20 mice after systemic (tail vein) dosing; settings: J20 mouse, 30 minutes prior to sacrifice, co-localizes with anti-Aβ antibody
Sequence of amyloid deposits in the retina (P05067 672-713 limits assumed): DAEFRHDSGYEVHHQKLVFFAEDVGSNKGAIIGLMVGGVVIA

Sequence of aggregated Aβ(1-42) peptide (P05067 672-713): as the sequence (P05067 672-713 limits assumed) above

N#C/C(=C\c1ccc2cc(N3CCCCC3)ccc2c1)C(=O)NCC(O)CO (stereo not shown) [Compound 5, (E)-2-cyano-N-(2,3-dihydroxypropyl)-3-(6-(piperidin-1-yl)naphthalen-2-yl)acrylamide]
staining of amyloid deposits in murine AD neuronal tissue [1]: staining of amyloid deposits

COC1OC(Cn2cc(COCCOCCOCCNC(=O)/C(C#N)=C/c3ccc4cc(N5CCCCC5)ccc4c3)nn2)C(O)C(O)C1O (stereo not shown) [Compound 19, (E)-2-cyano-3-(6-(piperidin-1-yl)naphthalen-2-yl)-N-(2-(2-(2-((1-((3,4,5-trihydroxy-6-methoxytetrahydro-2H-pyran-2-yl)methyl)-1H-1,2,3-triazol-4-yl)methoxy)ethoxy)ethoxy)ethyl)acrylamide]
staining of amyloid deposits in murine AD neuronal tissue [1]: staining of amyloid deposits

COCCOCCOCCNS(=O)(=O)/C(C#N)=C/c1ccc2cc(N3CCCCC3)ccc2c1 [Compound 2, (E)-1-cyano-N-(2-(2-(2-methoxyethoxy)ethoxy)ethyl)-2-(6-(piperidin-1-yl)naphthalen-2-yl)ethenesulfonamide]
fluorescence labeling of amyloid deposits in hippocampal brain sections [1]: fluorescence labeling of amyloid deposits

COCCOCCOCCOCCOCCOCCNC(=O)/C(C#N)=C/c1ccc2cc(N3CCCCC3)ccc2c1 [Compound 3, (E)-2-cyano-N-(2,5,8,11,14,17-hexaoxanonadecan-19-yl)-3-(6-(piperidin-1-yl)naphthalen-2-yl)acrylamide]
staining of amyloid deposits in murine AD neuronal tissue [1]: staining of amyloid deposits

COCCOCCOCCNC(=O)/C(C#N)=C/c1ccc2cc(N3CCCCC3)ccc2c1 [Compound 1, (E)-2-Cyano-N-(2-(2-(2-methoxyethoxy)ethoxy)ethyl)-3-(6-(piperidin-1-yl)naphthalen-2-yl)acrylamide]
fluorescence labeling of amyloid deposits in hippocampal brain sections [1]: fluorescence labeling of amyloid deposits
fold increase of solubility in acid buffer vs water (Solubility studies): 100 fold
solubility (physchem; aqueous buffer, solubility at lower pH and higher acidic buffer strength): > 6000 µg/mL
solubility (physchem; aqueous with cosolvent or surfactant or cyclodextrin, solubility in surfactants): > 5000 µg/mL
solubility (physchem; aqueous with cosolvent or surfactant or cyclodextrin, solubility in the other water miscible solvents listed): 2000 to 3000 µg/mL (≈ 4.43 to 6.64 mM)
solubility (physchem; oil or lipid, solubility in all oils tested): > 5000 µg/mL
solubility (physchem; organic solvent or mixture, Solubility (mg/mL)): 20000 µg/mL (≈ 44.3 mM)
solubility (physchem; organic solvent or mixture, solubility in water miscible solvents: alcohols): > 5000 µg/mL
solubility (physchem; pH 2, aqueous buffer, solubility in acid buffers): ≤ 350 µg/mL
solubility (physchem; pH 2.5, aqueous buffer, Conc (mg/mL)): 1630 µg/mL (≈ 3.61 mM)
solubility (physchem; pH 7.4, aqueous buffer, Conc (mg/mL)): 7.4 µg/mL (≈ 0.0164 mM)
solubility (physchem; water, Conc (mg/mL)): 3.1 µg/mL (≈ 0.00686 mM)
solubility (physchem; water, solubility in water): 3 µg/mL (≈ 0.00664 mM)
ability to bind selectively to amyloids [2]: bind selectively to amyloids
discrimination of amyloids of different disease origin based on color of emission [3]: can distinguish between amyloids of different disease origin based on color of emission
half-life [4]: ~150 h
visualization of amyloid deposits in the retina of live mice ([5]; mice inoculated with GPI-anchorless PrP, intraperitoneal injection): allowed for the visualization of amyloid deposits in the retina
accumulation in blood and retinal tissue after IP injection ([5]; wt mouse, fluorescence image immediately after IP injection): immediately accumulates in the blood and in the retinal tissue
crossing of the blood-retina barrier [6]: can cross the blood-retina barrier

COCCOCCOCCOC(=O)/C(C#N)=C/c1ccc2cc(N3CCCCC3)ccc2c1 [ANCA-11, (E)-2-(2-(2-methoxyethoxy)ethoxy)ethyl 2-cyano-3-(6-(piperidin-1-yl)naphthalen-2-yl)acrylate, reference compound]
half-life [4]: ~11 h

COC1OC(Cn2cc(CNC(=O)/C(C#N)=C/c3ccc4cc(N5CCCCC5)ccc4c3)nn2)C(O)C(O)C1O (stereo not shown) [Compound 20, (E)-2-cyano-3-(6-(piperidin-1-yl)naphthalen-2-yl)-N-((1-((3,4,5-trihydroxy-6-methoxytetrahydro-2H-pyran-2-yl)methyl)-1H-1,2,3-triazol-4-yl)methyl)acrylamide]
staining of amyloid deposits in murine AD neuronal tissue [1]: staining of amyloid deposits
